Values of other authors in patent US20020037319A1, “Drug preparations” (priority 1999, published 2002).
Structures can show the parent of a compound that is named as a salt.

Key:
[1] = oral, therapeutic dosages between 100 mg and 200 mg per day

solubility in water | treated patients who experience some form of GI (gastrointestinal) distress [1] | solubility in chloroform (sodium or potassium salt) | solubility in dilute acid (sodium or potassium salt) | solubility in ethanol (sodium or potassium salt) | solubility in methanol (sodium or potassium salt) | Structure (SMILES)
soluble |  |  |  |  |  | O=C(O)Cc1ccccc1Nc1c(Cl)cccc1Cl [diclofenac potassium]
sparingly soluble |  |  |  |  |  | O=C(O)Cc1ccccc1Nc1c(Cl)cccc1Cl [Diclofenac sodium]
 | more than 50% | practically insoluble | practically insoluble | soluble | freely soluble | O=C(O)Cc1ccccc1Nc1c(Cl)cccc1Cl [diclofenac, 2-[2,6-di-chlorophenyl)amino]benzeneacetic acid, monosodium or monopotassium salt]
